Test results published in publication PMC8773749, “Combinatorial Virtual Screening Revealed a Novel Scaffold for TNKS Inhibition to Combat Colorectal Cancer” (Biomedicines, 2022).

Columns and labels:
TNKS-1 [1] = biological target: T1, TNKS-1 (Homo sapiens, UniProt O95271); test: TNKS-1 histone ribosylation colorimetric assay, single concentration […]; format: biochemical
TNKS-1 [2] = biological target: T1, TNKS-1; test: TNKS-1 histone ribosylation colorimetric assay (BPS Bioscience kit); format: biochemical

T1 sequence (O95271 whole entry): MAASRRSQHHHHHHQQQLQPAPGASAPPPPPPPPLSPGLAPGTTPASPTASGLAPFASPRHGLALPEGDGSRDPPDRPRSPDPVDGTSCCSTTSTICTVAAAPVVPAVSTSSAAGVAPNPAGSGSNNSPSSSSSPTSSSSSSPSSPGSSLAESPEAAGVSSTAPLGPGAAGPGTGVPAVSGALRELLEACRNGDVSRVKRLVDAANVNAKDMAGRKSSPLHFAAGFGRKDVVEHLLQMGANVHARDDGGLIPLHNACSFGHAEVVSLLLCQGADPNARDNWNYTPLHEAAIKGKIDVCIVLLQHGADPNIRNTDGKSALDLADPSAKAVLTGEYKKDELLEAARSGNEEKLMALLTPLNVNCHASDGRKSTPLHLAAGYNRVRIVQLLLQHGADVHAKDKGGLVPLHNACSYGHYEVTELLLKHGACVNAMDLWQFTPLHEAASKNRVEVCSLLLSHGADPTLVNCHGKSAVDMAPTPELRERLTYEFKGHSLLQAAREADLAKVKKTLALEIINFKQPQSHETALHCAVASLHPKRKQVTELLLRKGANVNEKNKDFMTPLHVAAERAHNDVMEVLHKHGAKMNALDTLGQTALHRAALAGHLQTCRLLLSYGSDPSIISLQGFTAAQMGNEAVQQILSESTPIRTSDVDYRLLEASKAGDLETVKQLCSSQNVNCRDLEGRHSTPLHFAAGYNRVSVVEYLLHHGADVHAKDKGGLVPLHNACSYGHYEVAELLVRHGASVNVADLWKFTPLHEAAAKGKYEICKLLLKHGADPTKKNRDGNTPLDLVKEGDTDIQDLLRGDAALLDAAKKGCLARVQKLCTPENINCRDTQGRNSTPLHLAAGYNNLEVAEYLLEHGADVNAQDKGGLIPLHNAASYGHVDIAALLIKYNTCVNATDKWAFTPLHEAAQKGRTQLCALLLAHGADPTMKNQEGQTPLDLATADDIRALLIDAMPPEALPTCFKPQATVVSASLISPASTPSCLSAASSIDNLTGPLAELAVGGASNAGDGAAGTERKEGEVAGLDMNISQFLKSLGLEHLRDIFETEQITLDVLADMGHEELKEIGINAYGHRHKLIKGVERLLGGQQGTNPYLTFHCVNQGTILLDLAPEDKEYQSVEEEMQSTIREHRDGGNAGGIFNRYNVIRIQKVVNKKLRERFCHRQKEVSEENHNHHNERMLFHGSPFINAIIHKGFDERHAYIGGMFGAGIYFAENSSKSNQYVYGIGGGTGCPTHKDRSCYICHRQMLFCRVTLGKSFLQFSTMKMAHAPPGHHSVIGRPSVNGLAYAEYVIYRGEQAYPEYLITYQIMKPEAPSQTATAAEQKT

| Compound | % of Inhibition at 10 μM / TNKS-1 ^c (TNKS-1 [1]) | IC50 (TNKS-1 [2]) |
| --- | --- | --- |
| COc1ccc(-c2cc3ccccc3c(=O)o2)cc1 [NSC123012] | 50.92 |  |
| CN(C)c1ccc2c3c(c(=O)oc2c1)CCC3 [NSC315247] | 60.07 |  |
| CN(C)c1ccc2c(c1)oc(=O)c1ccccc12 [NSC102371] | 88.54 |  |
| Cc1c(C)c2ccc(N(C)C)cc2[nH]c1=O [NSC295092] |  | 66.1 nM |
| Cc1c(Cl)c2ccc(N(C)C)cc2[nH]c1=O [NSC319963] |  | 21.9 nM |
